Measured values from patent US8129527B2, “Analogs of dehydrophenylahistins and their therapeutic use” (Nereus Pharmacuticals, Inc., priority 2006, dated 2012).
Read-outs that look alike come from different tables or passages of the source.

Tests used:
[1] = tested on: A549 human non small cell lung tumor; assay: A549 Human Lung Tumor Xenograft Model; assay type: in vivo, nude mice; conditions: KPU-2 7.5 mg/kg ip qdx5 with taxotere
Description: Animals used were (exceptions are indicated for individual studies): female nude mice (nu/nu) between 5 and 6 weeks of age (˜20 g, Harlan); group size was 9-10 mice per group unless otherwise indicated.
Selected novel compounds were administered as monotherapy via the intraperitoneal (i.p.) route at the doses indicated for the individual study; for the combination studies the selected reference chemotherapy agents were injected 15-30 min prior to the compound.
Saline dilutions are used to achieve the injection concentrations used for the reference compounds.
Animals were implanted s.c. by trocar with fragments of A549 tumors harvested from s.c. growing tumors in nude mice hosts. When the tumor size reached 5 mm×5 mm (about 10-17 days) the animals were matched into treatment and control groups.

[2] = tested on: HL-60/MX-2 (Mitoxantrone-Resistant); assay: Drug resistant cell line pair, cytotoxicity (Example 10B); assay type: cell-based, human; conditions: Homo sapiens, HL60/MX2; HL-60 Resistant (HL-60/MX-2)
Source text: (§1) 2) Human Acute Promyelocytic Leukemia Cell Line Pair: HL-60 (Mitoxantrone-Sensitive) and HL-60/MX-2 (Mitoxantrone-Resistant)

Lyn (mouse) = Lyn (mouse) (Mus musculus, UniProt P25911); conditions: ATP 10 μM
Jurkat cells = assay: cells; assay type: cell-based; conditions: Jurkat cells
PARP in Jurkat cells = assay: Cleavage of poly(ADP-ribose)polymerase (PARP), western blotting; assay type: cell-based, human; conditions: 100 nM, 10 hours after exposure
Source text: In order to assess the ability of these compounds to induce apoptosis in Jurkat cells, cleavage of poly(ADP-ribose)polymerase (PARP) was monitored. […] The cleavage of PARP generates a stable 89 kDa product, and this process can be easily monitored by western blotting.

[3] = tested on: DU-145 human prostate tumor; assay: DU-145 Human Prostate Tumor Xenograft Model; assay type: in vivo, nude mice; conditions: KPU-2 plus taxotere, treatment Days 20-27
Description: When the tumors reached 5 mm×5 mm (at about 13-17 days) the animals were matched into treatment and control groups.
In this model unless otherwise noted for the individual study, test compounds were administered via the intraperitoneal route on Days 1, 3, 5, 8 and 11 (q3dx5); taxotere was administered intravenously on Days 1, 3 and 5 (q2dx3).

CDK1/Cyclin B (human) = CDK1/Cyclin B (human) (Homo sapiens, UniProt P06493); assay: biochemical
[4] = tested on: P388 murine leukemia cells; assay: Cytotoxic effect in P388 cells; assay type: cell-based
Source text: The cytotoxic effects of phenylahistin, dehydrophenylahistin and various derivatives of dehydrophenylahistin were examined in P388 murine leukemia cells, HT-29 human colon cells, and PC-3 prostatic adenocarcinoma cells.

HT-29 human colon tumor = assay: HT-29 Human Colon Tumor Xenograft Model; assay type: in vivo
Summary of the method: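 Nude mice bearing s.c. trocar-implanted HT-29 fragments were grouped at 5 mm×5 mm tumours and dosed i.p.; in combinations, reference chemotherapy was given 15-30 min before compound. Caliper measurements twice weekly were converted to tumour weight as (W^2×L)/2, with study end when control tumours averaged 1000 mg.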

HT-29 human colon cells = assay: Tumor cytotoxicity assay, resazurin fluorescence, 48 h (Example 6); assay type: cell-based; conditions: Homo sapiens
c-RAF (human) = c-RAF (human) (Homo sapiens, UniProt P04049); conditions: ATP 10 μM
[5] = target: panel of 60 different kinases; assay: Broad kinase screen, primary screen; assay type: biochemical; conditions: 10 μM compound, ATP 10 μM, 60 kinases
[6] = tested on: bovine brain microtubule protein; assay: Tubulin polymerization assay, turbidity (Example 21); assay type: biochemical; conditions: 5 μM in 1% DMSO
Description: Polymerization of bovine brain microtubule protein (Cytoskeleton, Inc., Denver, Colo.) was monitored by an increase in turbidity at 37° C. in microtubule buffer (80 mM PIPES, pH 6.8, 1 mM MgCl2, 1 mM EGTA, 1 mM GTP, 10% glycerol). […] Turbidity was measured as an increase in optical density at 340 nm with a thermo-controlled spectrophotometer (model 680XR microplate Reader™, Bio-Rad Laboratories).

[7] = tested on: Jurkat cells (human T cell leukemia line); assay: DNA fragmentation (DNA laddering); assay type: cell-based
Source text: A late stage characteristic of apoptosis is internucleosomal DNA cleavage that results in a distinctive ladder pattern that can be visualized by gel electrophoresis.

[8] = tested on: MCF-7 (Taxol Sensitive) human breast carcinoma; assay: Drug resistant cell line pair, cytotoxicity (Example 10B); assay type: cell-based; conditions: Homo sapiens, MCF7/Taxol, read-out: MCF-7 Sensitive IC50 nM
Source text: (§2) 3). Human Breast Carcinoma Cell Line Pair: MCF-7 (Taxol Sensitive) and MCF-7/ADR (Taxol Resistant)

[9] = tested on: MCF-7/ADR (Taxol Resistant) human breast carcinoma; assay: as above; assay type: cell-based; conditions: Homo sapiens, NCI/ADR-RES, read-out: MCF-7/ADR Resistant IC 50 nM
Source text: as §2

[10] = tested on: HL-60 (Mitoxantrone-Sensitive) human acute promyelocytic leukemia; assay: as above; assay type: cell-based; conditions: HL-60 Sensitive
Source text: as §1

[11] = tested on: human prostate tumor cells; assay: Induction of apoptosis, morphological changes; assay type: cell-based
Source text: Apoptosis and its dysregulation play an important role in oncology; the selective induction of the programmed cell death cycle in tumor cells is the goal of many chemotherapeutic drug discovery programs.
The characteristic signs of apoptotic cell death include cell membrane blebbing, disruption of nuclei, cell shrinkage and condensation and finally cell death, very distinctive from necrotic cell death. […] A similar finding was also clear in the treatment of HuVEC cells with KPU-2.

Sequence of Lyn (mouse) (P25911 whole entry): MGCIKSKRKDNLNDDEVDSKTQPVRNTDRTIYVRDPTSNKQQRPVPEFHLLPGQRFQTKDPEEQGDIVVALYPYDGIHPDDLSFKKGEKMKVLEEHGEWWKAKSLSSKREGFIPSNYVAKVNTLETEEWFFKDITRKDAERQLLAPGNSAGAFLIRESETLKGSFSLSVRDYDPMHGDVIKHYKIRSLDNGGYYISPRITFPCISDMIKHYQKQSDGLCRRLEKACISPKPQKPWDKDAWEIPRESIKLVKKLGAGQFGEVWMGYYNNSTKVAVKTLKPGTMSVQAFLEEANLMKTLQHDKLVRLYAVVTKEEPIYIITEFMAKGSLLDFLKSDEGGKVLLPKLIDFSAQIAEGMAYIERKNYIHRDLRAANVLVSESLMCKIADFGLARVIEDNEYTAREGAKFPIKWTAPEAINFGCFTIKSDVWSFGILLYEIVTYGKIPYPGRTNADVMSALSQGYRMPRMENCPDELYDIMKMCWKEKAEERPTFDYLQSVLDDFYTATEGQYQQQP
Sequence of CDK1/Cyclin B (human) (P06493 whole entry): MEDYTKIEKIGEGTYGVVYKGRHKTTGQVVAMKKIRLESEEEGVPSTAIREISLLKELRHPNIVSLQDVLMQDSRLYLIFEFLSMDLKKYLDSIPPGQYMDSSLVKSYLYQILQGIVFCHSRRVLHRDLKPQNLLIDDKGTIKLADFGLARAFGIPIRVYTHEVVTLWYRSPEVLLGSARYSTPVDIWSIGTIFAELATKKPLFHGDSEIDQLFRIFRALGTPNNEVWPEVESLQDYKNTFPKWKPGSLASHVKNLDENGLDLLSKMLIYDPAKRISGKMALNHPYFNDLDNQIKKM
Sequence of CDK1/Cyclin B (human) (P14635 whole entry partner): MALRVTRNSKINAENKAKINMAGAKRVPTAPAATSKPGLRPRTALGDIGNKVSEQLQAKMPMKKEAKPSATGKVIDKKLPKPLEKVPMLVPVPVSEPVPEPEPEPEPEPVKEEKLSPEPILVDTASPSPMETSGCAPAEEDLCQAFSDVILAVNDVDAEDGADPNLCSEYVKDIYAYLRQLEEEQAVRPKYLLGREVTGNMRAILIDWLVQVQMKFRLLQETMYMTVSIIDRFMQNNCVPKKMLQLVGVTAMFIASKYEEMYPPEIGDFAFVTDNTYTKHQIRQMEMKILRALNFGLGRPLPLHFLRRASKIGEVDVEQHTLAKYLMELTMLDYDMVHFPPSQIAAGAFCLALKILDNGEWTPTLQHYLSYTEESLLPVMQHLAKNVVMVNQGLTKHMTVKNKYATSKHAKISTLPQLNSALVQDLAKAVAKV
Sequence of c-RAF (human) (P04049 whole entry): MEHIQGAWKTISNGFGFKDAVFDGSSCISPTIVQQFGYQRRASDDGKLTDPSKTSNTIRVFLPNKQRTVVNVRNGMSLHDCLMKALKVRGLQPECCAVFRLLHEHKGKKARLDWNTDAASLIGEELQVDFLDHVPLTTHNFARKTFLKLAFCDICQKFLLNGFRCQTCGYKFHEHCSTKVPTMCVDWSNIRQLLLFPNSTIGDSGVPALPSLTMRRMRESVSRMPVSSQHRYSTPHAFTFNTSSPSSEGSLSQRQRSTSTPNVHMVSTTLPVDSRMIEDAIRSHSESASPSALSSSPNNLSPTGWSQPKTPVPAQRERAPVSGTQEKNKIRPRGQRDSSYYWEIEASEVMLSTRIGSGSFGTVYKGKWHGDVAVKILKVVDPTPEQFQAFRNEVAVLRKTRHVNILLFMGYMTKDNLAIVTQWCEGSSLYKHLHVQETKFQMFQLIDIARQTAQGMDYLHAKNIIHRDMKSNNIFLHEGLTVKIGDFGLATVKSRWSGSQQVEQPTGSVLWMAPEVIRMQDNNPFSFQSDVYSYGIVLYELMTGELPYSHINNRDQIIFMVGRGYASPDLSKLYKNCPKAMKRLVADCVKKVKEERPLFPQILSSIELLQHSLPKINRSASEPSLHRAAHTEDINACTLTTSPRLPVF

CC(C)(C)c1[nH]cnc1/C=c1\[nH]c(=O)/c(=C/c2ccccc2)[nH]c1=O [KPU-2, tBu-dehydro-PLH]
TGI of the cotherapy group [1]: 74.4% | IC50 [2]: 8.17 nM | IC50 (Lyn (mouse)): 11100 nM | Cytotoxicity Efficacy % Cell Death (Jurkat cells): 94% | cleavage of PARP (PARP in Jurkat cells): induced cleavage of PARP | apparent TGI [3]: > 58% | IC50 (CDK1/Cyclin B (human)): 10100 nM | IC50 ([4]; Mus musculus, P388, read-out: IC50 (nM) P-388): 31.8 ± 5 nM | cytotoxicity in P388 cells ([4]; in words): exhibited cytotoxicity in P388 cells | Comments (combination with CPT-11) (HT-29 human colon tumor; NPI compound + CPT-11 100 ip qwx3, study and dose as in the line): Synergy | NPI-Compound Result TGI % (HT-29 human colon tumor; Study 2139, monotherapy 7.5 mg/kg ip q3dx5): No Effect | NPI-Compound Result TGI % (HT-29 human colon tumor; Study 2164, monotherapy 7.5 mg/kg ip q3dx5): No Effect | NPI-Compound Result TGI % (HT-29 human colon tumor; Study 2164, monotherapy 7.5 mg/kg ip qdx5): No Effect | NPI-Compound Result TGI % (HT-29 human colon tumor; Study 2288, monotherapy 10→7.5 mg/kg ip q3dx5): No Effect | Exceed NCI Criterion (TGI ≧ 58%) (HT-29 human colon tumor; which treatment group exceeds the criterion, NPI compound, CPT-11 100 ip qwx3 or combination, study and dose as in the line): Combination | EC50 (HT-29 human colon cells; HT-29, Table 6, proliferation of HT-29 cells): 13 nM | EC50 (HT-29 human colon cells; HT-29, Table 9, summary of modification at the o-position, HT-29): 48 nM | EC50 (HT-29 human colon cells; HT-29, Table 10, summary of modification at the m-position, HT-29): 48 nM | EC50 (HT-29 human colon cells; HT-29, read-out: EC50 (nM) HT-29, Table 2): 13 nM | EC50 (HT-29 human colon cells; HT-29, read-out: EC50 (nM) HT-29, Table 3): 13 nM | EC50 (HT-29 human colon cells; HT-29, Table 5, synthetic potent dehydroPLH derivatives): 13 nM | IC50 (c-RAF (human)): 8900 nM | kinases inhibited in the primary screen [5]: Four kinases were inhibited by greater than 50% | tubulin polymerization [6]: inhibit tubulin polymerization | concentration inducing DNA laddering [7]: 1 nM | IC50 [8]: 39.6 nM | IC50 [9]: 27.4 nM | IC50 [10]: 6.4 nM | morphological changes of apoptosis [11]: induced the typical morphological changes associated with early stages of apoptosis
